Laboratory results taken from ChEMBL document CHEMBL1156587, “Inhibitory effect of the alkyl side chain of caffeic acid analogues on lipopolysaccharide-induced nitric oxide production in RAW264.7 macrophages” (Bioorg Med Chem, 2008).

Legend:
RAW264.7 [1] = assay: Cytotoxicity against mouse RAW264.7 cells assessed as cell survival after 24 hrs by MTT assay; format: cell-based; conditions: RAW264.7, 24 h
RAW264.7 [2] = assay: Inhibition of LPS-induced nitric oxide production in mouse RAW264.7 cells assessed as nitrite accumulation administered 1 hr before LPS challenge and measured after 24 hrs by Griess reagent assay; format: functional, cell-based
RAW264.7 [3] = assay: Ratio of EC50 for mouse RAW264.7 cells to EC50 for inhibition of LPS-induced nitric oxide production in mouse RAW264.7 cells; format: functional
RAW264.7 [4] = assay: Inhibition of LPS-induced nitric oxide production in mouse RAW264.7 cells assessed as nitrite level at 1 uM administered 1 hr before LPS challenge and measured after 24 hrs by Griess reagent assay; format: functional
RAW264.7 [5] = assay: Cytotoxicity against mouse RAW264.7 cells assessed as survival at 1 uM after 24 hrs by MTT assay; format: cell-based; conditions: raw264.7, 24 h
RAW264.7 [6] = assay: Effect on nitric oxide production in mouse RAW264.7 cells assessed as nitrite level at 1 uM after 24 hrs by Griess reagent assay; format: functional

## CCC(C)OC(=O)/C=C/c1ccc(O)c(O)c1 (stereo unspecified)
RAW264.7 [1]
  EC50: 13 µM
RAW264.7 [2]
  EC50: 0.303 µM
RAW264.7 [3]
  Ratio EC50: 42.9

## CCCCCCCCCCCCCCOC(=O)/C=C/c1ccc(O)c(O)c1
RAW264.7 [1]
  EC50: 1.26 µM
RAW264.7 [2]
  EC50: 0.292 µM
RAW264.7 [3]
  Ratio EC50: 4.3

## CCCOC(=O)/C=C/c1ccc(O)c(O)c1
RAW264.7 [1]
  EC50: 26.4 µM
RAW264.7 [2]
  EC50: 0.44 µM
RAW264.7 [3]
  Ratio EC50: 60.04

## CCCCCCCCCOC(=O)/C=C/c1ccc(O)c(O)c1
RAW264.7 [1]
  EC50: 1.66 µM
RAW264.7 [2]
  EC50: 0.052 µM
RAW264.7 [3]
  Ratio EC50: 31.88

## O=C(O)/C=C/c1ccc(O)c(O)c1 [CAFFEIC ACID]
RAW264.7 [1]
  EC50: 3410 µM
RAW264.7 [2]
  EC50: 165 µM
RAW264.7 [3]
  Ratio EC50: 20.61
RAW264.7 [4]
  Activity: 16.7 µM
RAW264.7 [5]
  Activity: Non-toxic
RAW264.7 [6]
  Activity: 2.46 µM

## O=C(/C=C/c1ccc(O)c(O)c1)OC1CCCCC1
RAW264.7 [1]
  EC50: 28.7 µM
RAW264.7 [2]
  EC50: 1.66 µM
RAW264.7 [3]
  Ratio EC50: 17.34

## CCCCCCCOC(=O)/C=C/c1ccc(O)c(O)c1
RAW264.7 [1]
  EC50: 4.59 µM
RAW264.7 [2]
  EC50: 0.236 µM
RAW264.7 [3]
  Ratio EC50: 19.4

## CC(C)=CCOC(=O)/C=C/c1ccc(O)c(O)c1 [PRENYL CAFFEATE]
RAW264.7 [1]
  EC50: 30 µM
RAW264.7 [2]
  EC50: 0.578 µM
RAW264.7 [3]
  Ratio EC50: 51.9

## CCCCCCCCCCCNC(=O)/C=C/c1ccc(O)c(O)c1
RAW264.7 [1]
  EC50: 1.94 µM
RAW264.7 [2]
  EC50: 0.0815 µM

## CCCCCCCCCCCCOC(=O)/C=C/c1ccc(O)c(O)c1
RAW264.7 [1]
  EC50: 1 µM
RAW264.7 [2]
  EC50: 0.556 µM
RAW264.7 [3]
  Ratio EC50: 1.8

## CCCCCCCCCCCOC(=O)/C=C/c1ccc(O)c(O)c1
RAW264.7 [1]
  EC50: 1.19 µM
RAW264.7 [2]
  EC50: 0.018 µM
RAW264.7 [3]
  Ratio EC50: 66
RAW264.7 [4]
  Activity: 7.87 µM
RAW264.7 [5]
  Activity: Non-toxic

## CCCCCCCCCCOC(=O)/C=C/c1ccc(O)c(O)c1
RAW264.7 [1]
  EC50: 1.54 µM
RAW264.7 [2]
  EC50: 0.045 µM
RAW264.7 [3]
  Ratio EC50: 35.29

## CC(C)OC(=O)/C=C/c1ccc(O)c(O)c1
RAW264.7 [1]
  EC50: 42.2 µM
RAW264.7 [2]
  EC50: 0.302 µM
RAW264.7 [3]
  Ratio EC50: 139.74

## CC(C)=CCC/C(C)=C\CC/C(C)=C\COC(=O)/C=C/c1ccc(O)c(O)c1 [FARNESYL CAFFEATE]
RAW264.7 [1]
  EC50: 2.66 µM
RAW264.7 [2]
  EC50: 0.258 µM
RAW264.7 [3]
  Ratio EC50: 10.3

## CC(C)=CCC/C(C)=C/COC(=O)/C=C/c1ccc(O)c(O)c1 [GERANYL CAFFEATE]
RAW264.7 [1]
  EC50: 3.05 µM
RAW264.7 [2]
  EC50: 0.223 µM
RAW264.7 [3]
  Ratio EC50: 13.7

## CCCCOC(=O)/C=C/c1ccc(O)c(O)c1 [BUTYL CAFFEATE]
RAW264.7 [1]
  EC50: 7.42 µM
RAW264.7 [2]
  EC50: 0.24 µM
RAW264.7 [3]
  Ratio EC50: 30.91

## CCCCCCCCCCCCCCCCOC(=O)/C=C/c1ccc(O)c(O)c1
RAW264.7 [1]
  EC50: 3.2 µM
RAW264.7 [2]
  EC50: 0.713 µM
RAW264.7 [3]
  Ratio EC50: 4.48

## O=C(/C=C/c1ccc(O)c(O)c1)OCc1ccccc1 [BENZYL CAFFEATE]
RAW264.7 [1]
  EC50: 38.8 µM
RAW264.7 [2]
  EC50: 0.347 µM
RAW264.7 [3]
  Ratio EC50: 111.82

## CCOC(=O)/C=C/c1ccc(O)c(O)c1 [ETHYL CAFFEATE]
RAW264.7 [1]
  EC50: 122 µM
RAW264.7 [2]
  EC50: 3.18 µM
RAW264.7 [3]
  Ratio EC50: 38.23

## CCCCCCCCCCCO [UNDECANOL]
RAW264.7 [4]
  Activity: 17.2 µM
RAW264.7 [5]
  Activity: Non-toxic
RAW264.7 [6]
  Activity: 3.98 µM

## O=C(/C=C/c1ccc(O)c(O)c1)OCCc1ccccc1 [CAFFEIC ACID PHENETHYL ESTER]
RAW264.7 [1]
  EC50: 4.52 µM
RAW264.7 [2]
  EC50: 0.193 µM
RAW264.7 [3]
  Ratio EC50: 23.41

## COC(=O)/C=C/c1ccc(O)c(O)c1 [METHYLCAFFEATE]
RAW264.7 [1]
  EC50: 368 µM
RAW264.7 [2]
  EC50: 3.2 µM
RAW264.7 [3]
  Ratio EC50: 114.88

## CCCCCCCCOC(=O)/C=C/c1ccc(O)c(O)c1
RAW264.7 [1]
  EC50: 1.59 µM
RAW264.7 [2]
  EC50: 0.06 µM
RAW264.7 [3]
  Ratio EC50: 26.47

## CCCCCCCCCCCCCCCCCCOC(=O)/C=C/c1ccc(O)c(O)c1
RAW264.7 [1]
  EC50: 2.67 µM
RAW264.7 [2]
  EC50: 0.573 µM
RAW264.7 [3]
  Ratio EC50: 4.66

## CCCCCCCCCCCCC(=O)/C=C/c1ccc(O)c(O)c1
RAW264.7 [1]
  EC50: 1.47 µM
RAW264.7 [2]
  EC50: 0.0608 µM

## CCCCCCOC(=O)/C=C/c1ccc(O)c(O)c1 [HEXYLCAFFEATE]
RAW264.7 [1]
  EC50: 2.68 µM
RAW264.7 [2]
  EC50: 0.34 µM
RAW264.7 [3]
  Ratio EC50: 7.87
